Here are results for 12 compounds from PubChem BioAssay (NCI).

Among the test systems are HCT-116 colon; HT29 colon; K-562 leukemia; KM12 colon; OVCAR-4 ovarian; OVCAR-5 ovarian; OVCAR-8 ovarian; SNB-75 CNS; CCRF-CEM leukemia; NCI-H522 lung.
Holding throughout (assay): growth of human tumour cells (NCI), 48 h

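Grown in 96-well plates, cells were treated for 48 hours with each compound at five concentrations. Insufficient inhibition: endpoint recorded as highest concentration tested. GI50: concentration for 50% inhibition of growth. TGI denotes the concentration required for complete inhibition of growth.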

In the case of `O=C(O)CCSC(=S)Nc1cccc(F)c1`, the TGI in the assay on HCT-116 colon, in the assay on HT29 colon, in the assay with K-562 leukemia, in the assay with KM12 colon, in the assay on OVCAR-4 ovarian and in the assay with OVCAR-5 ovarian was > 100 µM throughout. Further, the TGI with OVCAR-8 ovarian and with SNB-75 CNS was > 100 µM throughout.

Consider `CC(O[Si](c1ccccc1)(c1ccccc1)C(C)(C)C)[C@H](NC(=O)OC(C)(C)C)C(=O)O` (some centres undefined), for which the TGI with CCRF-CEM leukemia, with HCT-116 colon, in the assay on HT29 colon, in the assay on K-562 leukemia, in the assay on KM12 colon and in the assay on OVCAR-4 ovarian was > 100 µM each time. Besides, the TGI with OVCAR-5 ovarian, in the assay with OVCAR-8 ovarian and with SNB-75 CNS was > 100 µM each time.

As for `COc1ccc(C[C@H](N)C(=O)N2C[C@@H](CO)C[C@@H](n3cnc4c(N(C)C)ncnc43)C2)cc1`, the TGI in the assay with CCRF-CEM leukemia, in the assay on HCT-116 colon, with HT29 colon, with K-562 leukemia, in the assay on KM12 colon and in the assay with NCI-H522 lung was > 100 µM throughout. For the same compound, the TGI in the assay with OVCAR-5 ovarian and with OVCAR-8 ovarian was > 100 µM each time.

For `O=C(O)CCSC(=O)Nc1ccccc1Cl`, the TGI in the assay with CCRF-CEM leukemia, with HCT-116 colon, in the assay on HT29 colon, in the assay on K-562 leukemia, with KM12 colon and with OVCAR-4 ovarian was > 100 µM each time. Further, the TGI in the assay on OVCAR-5 ovarian, in the assay on OVCAR-8 ovarian and in the assay on SNB-75 CNS was > 100 µM in each case.

Regarding `CN(C)CCC1(C2=CCCC2)CC/C(=C\c2ccccc2Cl)C1=O` (centres undefined), the TGI stood at 29 µM in the assay with CCRF-CEM leukemia; 24.6 µM with HCT-116 colon; 20.7 µM in the assay with HT29 colon; 14.5 µM in the assay on K-562 leukemia; 27.3 µM with KM12 colon; 25.8 µM with OVCAR-4 ovarian. Further, the results for the TGI in the assay with OVCAR-5 ovarian and in the assay on OVCAR-8 ovarian were 29.1 µM and 29.3 µM, respectively.

Consider `C=C1CCC2C3(C)COC(c4ccc(Cl)cc4)OC3CCC2(C)C1/C=C/C1=CCOC1=O` (centres undefined), for which the GI50 in the assay with CCRF-CEM leukemia was 1.56 µM; in the assay with HCT-116 colon, 2.54 µM; with HT29 colon it was 5.52 µM; with KM12 colon it was 9.19 µM; in the assay with NCI-H522 lung, 1.11 µM; in the assay with OVCAR-5 ovarian it was 70.2 µM. Also, the GI50 is 4.07 µM in the assay with OVCAR-8 ovarian and 12.1 µM in the assay with SNB-75 CNS. In addition, the TGI in the assay with CCRF-CEM leukemia is 12.6 µM; in the assay with HCT-116 colon it was > 100 µM; with HT29 colon it was > 100 µM; in the assay on K-562 leukemia it was > 100 µM; with KM12 colon, > 100 µM; in the assay on NCI-H522 lung, 36.7 µM. For the same compound, the TGI was > 100 µM in the assay on OVCAR-5 ovarian, > 100 µM with OVCAR-8 ovarian and 41.5 µM in the assay with SNB-75 CNS.

Take `CCOC(=O)NC(=O)c1cn(CCN2CCNCC2)c(=O)[nH]c1=O`: the TGI in the assay on CCRF-CEM leukemia, in the assay on HCT-116 colon, in the assay with HT29 colon, in the assay with K-562 leukemia, in the assay on KM12 colon and in the assay with NCI-H522 lung was > 100 µM each time. In addition, the TGI with OVCAR-4 ovarian, with OVCAR-5 ovarian and in the assay with OVCAR-8 ovarian was > 100 µM each time.

As to `O=C(O)CC1CC=C[C@H]2c3cc4c(cc3C(=O)NC12)OCO4` (some centres undefined), the TGI in the assay on CCRF-CEM leukemia, in the assay with HCT-116 colon, in the assay on K-562 leukemia, in the assay on KM12 colon, in the assay on NCI-H522 lung and with OVCAR-8 ovarian was > 75 µM each time. In the assay with SNB-75 CNS, the TGI is > 75 µM.

Take `Nc1ccc2c(c1)Oc1c(F)c(F)cc3c(=O)c(C(=O)O)cn-2c13`: the TGI in the assay with CCRF-CEM leukemia, in the assay on HCT-116 colon, with HT29 colon, in the assay on K-562 leukemia, in the assay with KM12 colon and in the assay on NCI-H522 lung was > 100 µM throughout. The TGI in the assay with OVCAR-4 ovarian, in the assay on OVCAR-5 ovarian and with OVCAR-8 ovarian was > 100 µM in each case.

`CCCN1C(=O)/C(=C/c2ccc(O)cc2)SC1=Nc1ccc(OC)cc1`: the GI50 in the assay with HCT-116 colon was 14.2 µM; in the assay with HT29 colon, 22.1 µM; with K-562 leukemia, 12.5 µM; in the assay with KM12 colon, 10.6 µM; in the assay with NCI-H522 lung, 39.9 µM; in the assay with OVCAR-4 ovarian, 13.4 µM. Also, the GI50 with OVCAR-5 ovarian is 15.9 µM; in the assay with OVCAR-8 ovarian it was 18.2 µM; with SNB-75 CNS, 17.8 µM. Also, the TGI in the assay with HCT-116 colon is 29.3 µM; with HT29 colon it was 48.4 µM; in the assay with K-562 leukemia it was > 100 µM; with KM12 colon, 28.7 µM; in the assay on NCI-H522 lung it was > 100 µM; in the assay on OVCAR-4 ovarian it was 35.2 µM. For the same compound, the TGI in the assay on OVCAR-5 ovarian is 29.6 µM; in the assay on OVCAR-8 ovarian, 37.1 µM; in the assay on SNB-75 CNS, 46.1 µM.

On to `CCCCCCN(C)Cc1ccc(OCCOc2ccc(CN(C)CCCCCC)cc2)cc1`, for which the GI50 was 1.01 µM with HCT-116 colon; 0.375 µM with HT29 colon; 0.452 µM in the assay with K-562 leukemia; 1.47 µM in the assay on KM12 colon; 0.944 µM with NCI-H522 lung; 1.17 µM in the assay with OVCAR-4 ovarian. In addition, the GI50 in the assay on OVCAR-5 ovarian was 1.46 µM; in the assay on OVCAR-8 ovarian it was 1.41 µM; with SNB-75 CNS it was 1.2 µM. Besides, the TGI with HCT-116 colon was 2.21 µM; with HT29 colon, 1.53 µM; with K-562 leukemia it was > 100 µM; in the assay with KM12 colon, 2.84 µM; in the assay on NCI-H522 lung, 2.25 µM; in the assay with OVCAR-4 ovarian it was 2.74 µM. Further, the values for the TGI with OVCAR-5 ovarian, with OVCAR-8 ovarian and with SNB-75 CNS were 4.03 µM, 3.16 µM and 2.57 µM, respectively.

Consider `COc1ccc(-c2nc(-c3cnccn3)n(COCCO)n2)cc1`, for which the TGI in the assay on CCRF-CEM leukemia, in the assay on HCT-116 colon, in the assay on HT29 colon, in the assay with K-562 leukemia, with KM12 colon and in the assay with NCI-H522 lung was > 100 µM throughout. Besides, the TGI in the assay with OVCAR-4 ovarian, in the assay on OVCAR-5 ovarian and with OVCAR-8 ovarian was > 100 µM each time.
